Here are results for four compounds from ChEMBL document CHEMBL1240496, “Development of potent glucagon-like peptide-1 agonists with high enzyme stability via introduction of multiple lactam bridges” (J Med Chem, 2010).

The structures appear in SMILES notation. Bridge positions count the residues as written; N and C are the ends. Peptide text beside a SMILES is read from it.

The term half-life denotes the time in which the quantity being followed falls by half.

One data set relates to DPP4. In words: Chemical stability of the compound assessed as half life up to 24 hrs by HPLC analysis in presence of human recombinant DPP4. In kind it is physicochemical.
Another data set concerns NEP 24.11. In words: Chemical stability of the compound assessed as half life up to 24 hrs by HPLC analysis in presence of human recombinant NEP 24.11. In kind it is physicochemical.
The target of data set [1] is Glucagon-like peptide 1 receptor (Homo sapiens, UniProt P43220). Kind of data set: Activation of human GLP1 receptor expressed in HEK293 cells assessed as increase in cAMP accumulation. The data set is classed as functional, cell-based.
Chain of Glucagon-like peptide 1 receptor (P43220 whole entry): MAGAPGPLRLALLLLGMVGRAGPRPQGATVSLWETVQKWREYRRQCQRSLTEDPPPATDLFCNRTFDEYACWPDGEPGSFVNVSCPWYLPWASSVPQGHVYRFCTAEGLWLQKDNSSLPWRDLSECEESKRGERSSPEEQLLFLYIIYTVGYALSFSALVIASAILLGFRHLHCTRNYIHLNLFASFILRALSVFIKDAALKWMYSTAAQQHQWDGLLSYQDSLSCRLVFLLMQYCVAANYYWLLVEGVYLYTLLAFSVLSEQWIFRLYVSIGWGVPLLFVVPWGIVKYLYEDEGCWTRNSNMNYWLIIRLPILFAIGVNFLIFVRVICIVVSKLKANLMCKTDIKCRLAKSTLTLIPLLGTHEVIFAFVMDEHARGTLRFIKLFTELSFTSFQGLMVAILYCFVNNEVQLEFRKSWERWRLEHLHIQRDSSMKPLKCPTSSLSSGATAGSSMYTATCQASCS

For `CC[C@H](C)[C@H](NC(=O)[C@H](Cc1ccccc1)NC(=O)[C@H](CCC(=O)O)NC(=O)[C@H](CCCCN)NC(=O)[C@H](C)NC(=O)[C@H](C)NC(=O)[C@H](CCC(N)=O)NC(=O)CNC(=O)[C@H](CC(C)C)NC(=O)[C@H](Cc1ccc(O)cc1)NC(=O)[C@H](CO)NC(=O)[C@H](CO)NC(=O)[C@@H](NC(=O)[C@H](CC(=O)O)NC(=O)[C@H](CO)NC(=O)[C@@H](NC(=O)[C@H](Cc1ccccc1)NC(=O)[C@@H](NC(=O)CNC(=O)[C@H](CCC(=O)O)NC(=O)[C@H](C)NC(=O)[C@@H](N)Cc1cnc[nH]1)[C@@H](C)O)[C@@H](C)O)C(C)C)C(=O)N[C@@H](C)C(=O)N[C@@H](Cc1c[nH]c2ccccc12)C(=O)N[C@@H](CC(C)C)C(=O)N[C@H](C(=O)N[C@@H](CCCCN)C(=O)NCC(=O)N[C@@H](CCCNC(=N)N)C(=O)O)C(C)C` [GLP-1] (H-HAEGTFTSDVSSYLGQAAKEFIAWLVKGR-OH), the half-life in the data set on DPP4 was found to be 2 h; in the data set on NEP 24.11 it was 4.6 h.
For `CC[C@H](C)[C@H](NC(=O)[C@H](Cc1ccccc1)NC(=O)[C@H](CCC(=O)O)NC(=O)[C@@H]1CCCCNC(=O)CC[C@H](NC(=O)[C@H](CCC(=O)O)NC(=O)[C@H](CC(C)C)NC(=O)[C@H](Cc2ccc(O)cc2)NC(=O)[C@H](CO)NC(=O)[C@H](CO)NC(=O)[C@@H](NC(=O)[C@H](CC(=O)O)NC(=O)[C@H](CO)NC(=O)[C@@H](NC(=O)[C@H](Cc2ccccc2)NC(=O)[C@@H](NC(=O)CNC(=O)[C@H](CCC(=O)O)NC(=O)[C@H](C)NC(=O)[C@@H](N)Cc2cnc[nH]2)[C@@H](C)O)[C@@H](C)O)C(C)C)C(=O)N[C@@H](CCC(N)=O)C(=O)N[C@@H](C)C(=O)N[C@@H](C)C(=O)N1)C(=O)N[C@@H](C)C(=O)N[C@@H](Cc1c[nH]c2ccccc12)C(=O)N[C@@H](CC(C)C)C(=O)N[C@H](C(=O)N[C@@H](CCCCN)C(=O)NCC(=O)N[C@@H](CCCN=C(N)N)C(=O)O)C(C)C`, the EC50 in data set [1] (read-out: EC50) is 2.8 nM; in data set [1] (read-out: pEC50 (converted)), 5.01 nM. In addition, the results for the half-life in the data set on DPP4 and in the data set on NEP 24.11 were 2.9 h and 6.9 h, respectively.
For `CC[C@H](C)[C@H](NC(=O)[C@H](Cc1ccccc1)NC(=O)[C@H](CCC(=O)O)NC(=O)[C@H](CCCCN)NC(=O)[C@H](C)NC(=O)[C@H](C)NC(=O)[C@H](CCC(N)=O)NC(=O)CNC(=O)[C@H](CCC(=O)O)NC(=O)[C@@H]1CCCCNC(=O)CC[C@H](NC(=O)[C@H](CC(=O)O)NC(=O)[C@H](CO)NC(=O)[C@@H](NC(=O)[C@H](Cc2ccccc2)NC(=O)[C@@H](NC(=O)CNC(=O)[C@H](CCC(=O)O)NC(=O)[C@H](C)NC(=O)[C@@H](N)Cc2cnc[nH]2)[C@@H](C)O)[C@@H](C)O)C(=O)N[C@@H](CO)C(=O)N[C@@H](CO)C(=O)N[C@@H](Cc2ccc(O)cc2)C(=O)N1)C(=O)N[C@H]1CCC(=O)NCCCC[C@@H](C(=O)NCC(=O)N[C@@H](CCCN=C(N)N)C(N)=O)NC(=O)[C@H](C(C)C)NC(=O)[C@H](CC(C)C)NC(=O)[C@H](Cc2c[nH]c3ccccc23)NC1=O` (H-HAEGTFTSDESSYKEGQAAKEFIEWLVKGR-NH2; lactam 10-14, 24-28), the EC50 in data set [1] (read-out: EC50) turned out to be 3.3 nM. Besides, the half-life stood at 3.1 h with DPP4 and 6.6 h in the data set on NEP 24.11.
Take `CC[C@H](C)[C@H](NC(=O)[C@H](Cc1ccccc1)NC(=O)[C@H](CCC(=O)O)NC(=O)[C@H](CCCCN)NC(=O)[C@H](C)NC(=O)[C@H](C)NC(=O)[C@H](CCC(N)=O)NC(=O)[C@@H]1CCCCNC(=O)CC[C@H](NC(=O)[C@H](CO)NC(=O)[C@@H](NC(=O)[C@H](CC(=O)O)NC(=O)[C@H](CO)NC(=O)[C@@H](NC(=O)[C@H](Cc2ccccc2)NC(=O)[C@@H](NC(=O)CNC(=O)[C@H](CCC(=O)O)NC(=O)[C@H](C)NC(=O)[C@@H](N)Cc2cnc[nH]2)[C@@H](C)O)[C@@H](C)O)C(C)C)C(=O)N[C@@H](Cc2ccc(O)cc2)C(=O)N[C@@H](CC(C)C)C(=O)N[C@@H](CCC(=O)O)C(=O)N1)C(=O)N[C@H]1CCC(=O)NCCCC[C@@H](C(=O)NCC(=O)N[C@@H](CCCN=C(N)N)C(N)=O)NC(=O)[C@H](C(C)C)NC(=O)[C@H](CC(C)C)NC(=O)[C@H](Cc2c[nH]c3ccccc23)NC1=O`: the EC50 in data set [1] (read-out: EC50) came to 1.9 nM. Further, the half-life in the data set on DPP4 is 3.6 h; with NEP 24.11, above 96 h.
